Laboratory results as given in patent publication US20030180304A1, “Secretory tyrosine phosphatases from mycobacteria” (priority 2000, published 2003).
Entries after “also recorded” stand apart in the source; their conditions may differ.

Experiments:
MptpA = molecular target: T1, MptpA (Mycobacterium tuberculosis, UniProt P9WIA1); assay type: biochemical, M. tuberculosis; conditions: pH 7
T1 construct: made in house; host or cells: E. coli BL21 (pGEX-5X-3)

MptpB = molecular target: T2, MptpB (Mycobacterium tuberculosis, UniProt I6WXK4); assay type: biochemical, M. tuberculosis; conditions: pH 5.6
T2 construct: made in house; host or cells: E. coli BL21 (pGEX-5X-3)
T2 sequence (I6WXK4 whole entry, looked up): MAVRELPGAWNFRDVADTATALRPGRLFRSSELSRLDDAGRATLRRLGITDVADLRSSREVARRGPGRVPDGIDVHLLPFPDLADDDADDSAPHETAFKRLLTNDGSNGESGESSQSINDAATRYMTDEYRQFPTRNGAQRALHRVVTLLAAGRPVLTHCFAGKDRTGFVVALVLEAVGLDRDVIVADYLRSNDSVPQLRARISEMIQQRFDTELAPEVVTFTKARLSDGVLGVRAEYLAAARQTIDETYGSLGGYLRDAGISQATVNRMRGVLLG

T1 sequence (P9WIA1 whole entry): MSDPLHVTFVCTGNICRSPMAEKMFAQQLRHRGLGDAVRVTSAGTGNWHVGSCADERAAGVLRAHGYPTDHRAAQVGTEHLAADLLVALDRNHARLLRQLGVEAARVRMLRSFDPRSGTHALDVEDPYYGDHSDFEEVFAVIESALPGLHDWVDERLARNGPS

Structure (SMILES) | Effect of inhibitor on the activity of MptpA towards tyrosine phosphorylated MBP (MptpA) | Effect of inhibitor on the activity of MptpB towards tyrosine phosphorylated MBP (MptpB)
C=C1[C@@H](O)[C@@H]2O[C@]3(CC[C@H](/C=C/[C@@H](C)[C@@H]4CC(C)=C[C@@]5(O[C@H](C[C@@](C)(O)C(=O)O)CC[C@H]5O)O4)O3)CC[C@H]2O[C@@H]1[C@@H](O)C[C@H](C)[C@H]1O[C@@]2(CCCCO2)CC[C@H]1C [okadaic acid] | had no effect; also recorded: did not inhibit | had no effect; also recorded: did not inhibit
[F-].[Na+] [sodium fluoride] | had no effect | had no effect
[Na+].[Na+].[Na+].[O]=[V]([O-])([O-])[O-] [sodium orthovanadate] | inhibited | inhibited
O=C(O)C(O)C(O)C(=O)O (stereo not shown) [tartrate] | had no effect; also recorded: insensitive | had no effect; also recorded: insensitive
c1ccc(C2CN3CCSC3=N2)cc1 (stereo not shown) [tetramisole] | had no effect; also recorded: insensitive | had no effect; also recorded: insensitive
